Data as given in patent US7304077B2, “Chemical compounds” (AstraZeneca AB, priority 2001, dated 2007).

SMILES | melting point [°C]
NS(=O)(=O)c1cccc(C(=O)NCCN2CCC(Oc3ccc(Cl)c(Cl)c3)CC2)c1 [Example 22, 3-(aminosulfonyl)-N-{2-[4-(3,4-dichlorophenoxy)-1-piperidinyl]ethyl}benzamide] | 168 to 169
CS(=O)(=O)Cc1cccc(C(=O)NCCN2CCC(Oc3ccc(Cl)c(Cl)c3)CC2)c1 [Compound 5 of Table I, N-{2-[4-(3,4-dichlorophenoxy)-1-piperidinyl]ethyl}-3-[(methylsulfonyl)methyl]benzamide] | 112 to 114
O=C(NCCN1CCC(Oc2ccc(Cl)c(Cl)c2)CC1)c1nnc(Nc2ccccc2Cl)o1 [Example 31, 5-(2-chloroanilino)-N-{2-[4-(3,4-dichlorophenoxy)-1-piperidinyl]ethyl}-1,3,4-oxadiazole-2-carboxamide] | 161 to 162
COc1cccc(C(=O)N(C)CCN2CCC(Oc3ccc(F)c(F)c3)CC2)c1.Cl | 218
CS(=O)(=O)c1cccc(C(=O)NCCN2CCC(Oc3ccc(Cl)c(Cl)c3)CC2)c1.Cl | 219
Cc1c(Cl)ccc(OC2CCN(CCNC(=O)c3ccccc3S(C)(=O)=O)CC2)c1Cl [Example 36, N-{2-[4-(2,4-dichloro-3-methylphenoxy)-1-piperidinyl]ethyl}-2-(methylsulfonyl)benzamide] | 71 to 72
CS(=O)(=O)Nc1cccc(C(=O)NCCN2CCC(Oc3ccc(Cl)c(Cl)c3)CC2)c1 [Compound 24 of Table I, N-{2-[4(3,4-dichlorophenoxy)-1-piperidinyl]ethyl}-3-[(methylsulfonyl)amino]benzamide] | 150 to 151
CS(=O)(=O)c1ccc(C(=O)NCCN2CCC(Oc3ccc(F)c(F)c3)CC2)c(Cl)c1 [Example 42, 2-chloro-N-{2-[4-(3,4-difluorophenoxy)-1-piperidinyl]ethyl}-4-(methylsulfonyl)benzamide] | 108 to 109
CS(=O)(=O)c1cccc(C(=O)NCCCN2CCC(Oc3ccc(Cl)c(Cl)c3)CC2)c1.Cl | 212
N#Cc1ccccc1C(=O)NCCN1CCC(Oc2ccc(F)c(F)c2)CC1 [Example 41, 2-cyano-N-{2-[4-(3,4-difluorophenoxy)-1-piperidinyl]ethyl}benzamide] | 146 to 147
CS(=O)(=O)c1ccc(C(=O)NCCN2CCC(Oc3ccc(Cl)c(Cl)c3)CC2)s1 [Example 27, N-{2-[4-(3,4-dichlorophenoxy)-1-piperidinyl]ethyl}-5-(methylsulfonyl)-2-thiophenecarboxamide] | 142 to 143
O=C(Cn1nnc(N2CCCC2)n1)NCCN1CCC(Oc2ccc(Cl)c(Cl)c2)CC1 [Compound 34 of Table II, N-{2-[4-(3,4-dichlorophenoxy)-1-piperidinyl]ethyl}-2-[5-(1-pyrrolidinyl)-2H-tetraazol-2-yl]acetamide] | 114 to 116
CCn1cc(C(=O)NCCN2CCC(Oc3ccc(Cl)c(Cl)c3)CC2)c(=O)c2ccc(C)nc21 [Example 23, N-{2-[4-(3,4-dichlorophenoxy)-1-piperidinyl]ethyl}-1-ethyl-7-methyl-4-oxo-1,4-dihydro[1,8]naphthyridine-3-carboxamide] | 169 to 217
Cc1c(Cl)ccc(OC2CCN(CCNC(=O)c3ccc(S(C)(=O)=O)s3)CC2)c1Cl [Example 35, N-{2-[4-(2,4-dichloro-3-methylphenoxy)-1-piperidinyl]ethyl}-5-(methylsulfonyl)-2-thiophenecarboxamide] | 177 to 178
O=C(NCCN1CCC(Oc2ccc(Cl)c(Cl)c2)CC1)c1cn2ccccc2n1 [Example 30, N-{2-[4-(3,4-dichlorophenoxy)-1-piperidinyl]ethyl}imidazo[1,2-a]pyridine-2-carboxamide] | 150 to 151
N#Cc1cccc(C(=O)NCCN2CCC(Oc3ccc(F)c(F)c3)CC2)c1 [Example 43, 3-cyano-N-{2-[4-(3,4-difluorophenoxy)-1-piperidinyl]ethyl}benzamide] | 106 to 107
CS(=O)(=O)c1ccc(C(=O)NCCN2CCC(Oc3ccc(Cl)c(Cl)c3)CC2)cc1 [Example 29, N-{2-[4-(3,4-dichlorophenoxy)-1-piperidinyl]ethyl}-4-(methylsulfonyl)benzamide] | 100 to 101
NS(=O)(=O)c1cc(C(=O)NCCN2CCC(Oc3ccc(F)c(F)c3)CC2)ccc1Cl [Example 40, 3-(aminosulfonyl)-4-chloro-N-{2-[4-(3,4-difluorophenoxy)-1-piperidinyl]ethyl}benzamide] | 80 to 81
O=C(NCCN1CCC(Oc2ccc(Cl)c(Cl)c2)CC1)c1ccc(-n2cccn2)nc1 [Example 28, N-{2-[4-(3,4-dichlorophenoxy)-1-piperidinyl]ethyl}-6-(1H-pyrazol-1-yl)nicotinamide] | 154 to 155
CS(=O)(=O)Cc1ccc(C(=O)NCCN2CCC(Oc3ccc(Cl)c(Cl)c3)CC2)cc1 [Compound 7 of Table I, N-{2-[4-(3,4-dichlorophenoxy)-1-piperidinyl]ethyl}-4-[(methylsulfonyl)methyl]benzamide] | 179 to 181
Cc1cc(OC2CCN(CCNC(=O)c3ccc(-n4cccn4)nc3)CC2)ccc1Cl [Example 38, N-{2-[4-(4-chloro-3-methylphenoxy)-1-piperidinyl]ethyl}-6-(1H-pyrazol-1-yl)nicotinamide] | 183 to 184
O=C(NCCN1CCC(Oc2ccc(F)cc2Cl)CC1)c1ccc(-n2cccn2)nc1 [Example 32, N-{2-[4-(2-chloro-4-fluorophenoxy)-1-piperidinyl]ethyl}-6-(1H-pyrazol-1-yl)nicotinamide] | 109 to 110
Cc1cc(OC2CCN(CCNC(=O)c3ccc(S(C)(=O)=O)cc3)CC2)ccc1Cl [Example 37, N-{2-[4-(4-chloro-3-methylphenoxy)-1-piperidinyl]ethyl}-4-(methylsulfonyl)benzamide] | 123 to 124
CS(=O)(=O)Cc1ccc(C(=O)NCCN2CCC(Oc3ccc(F)c(F)c3)CC2)cc1 [Example 44, N-{2-[4-(3,4-difluorophenoxy)-1-piperidinyl]ethyl}-4-[(methylsulfonyl)methyl]benzamide] | 115 to 116
Cc1c(Cl)ccc(OC2CCN(CCNC(=O)c3ccc(S(C)(=O)=O)cc3)CC2)c1Cl [Example 34, N-{2-[4-(2,4-dichloro-3-methylphenoxy)-1-piperidinyl]ethyl}-4-(methylsulfonyl)benzamide] | 171 to 172
CS(=O)(=O)c1cccc(C(=O)NCCN2CCC(Oc3ccc(F)cc3Cl)CC2)c1 [Example 33, N-{2-[4-(2-chloro-4-fluorophenoxy)-1-piperidinyl]ethyl}-3-(methylsulfonyl)benzamide] | 50 to 51
